Measurements reported in US20230002352A1, “SULFONAMIDE DERIVATIVES AS CTPS1 INHIBITORS” (Step Pharma S.A.S., priority 2019, published 2023).

Target: T1, human CTPS1 (Homo sapiens, UniProt P17812)
T1 construct: purchased Proteros biostructures GmbH
T1 sequence (P17812 1-591): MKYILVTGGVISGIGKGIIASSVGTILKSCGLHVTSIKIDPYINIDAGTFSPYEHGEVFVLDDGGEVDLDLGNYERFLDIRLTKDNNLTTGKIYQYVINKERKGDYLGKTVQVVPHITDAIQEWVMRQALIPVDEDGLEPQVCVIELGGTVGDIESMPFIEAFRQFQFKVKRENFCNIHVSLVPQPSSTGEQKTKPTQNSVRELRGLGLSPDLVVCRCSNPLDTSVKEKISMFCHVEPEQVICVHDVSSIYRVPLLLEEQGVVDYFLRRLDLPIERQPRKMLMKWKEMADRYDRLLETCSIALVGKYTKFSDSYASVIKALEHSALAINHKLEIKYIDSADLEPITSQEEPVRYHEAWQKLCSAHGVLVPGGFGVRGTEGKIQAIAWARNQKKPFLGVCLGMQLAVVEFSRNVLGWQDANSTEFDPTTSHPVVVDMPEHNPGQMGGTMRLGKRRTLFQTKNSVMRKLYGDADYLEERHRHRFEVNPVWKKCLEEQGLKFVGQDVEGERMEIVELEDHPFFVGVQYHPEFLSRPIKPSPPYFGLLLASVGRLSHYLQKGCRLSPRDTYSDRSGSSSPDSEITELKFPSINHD
Experiment: Human CTPS1 enzyme inhibition (ADP-Glo Max assay)
Type: biochemical
Settings: Table 23; ADP-Glo Max assay; read-out: CTPS1 (Human CTPS1 Enzyme Inhibition data grouped by potency range, IC50)
Description: Biological Example 1—Human CTPS1 Enzyme Inhibition
The enzyme inhibitory activities of compounds invented against the target of interest were determined using the ADP-Glo™ Max assay (Promega, UK). Assays for human CTPS1 were performed in 1× assay buffer containing 50 mM Tris, 10 mM MgCl2, 0.01% Tween-20, pH to 8.0 accordingly. Finally, immediately before use, L-cysteine was added to the 1× assay buffer to a final concentration of 2 mM. All reagents are from Sigma-Aldrich unless specified otherwise. Human full length active C-terminal FLAG-Hiss-tag CTPS1 (UniProtKB-P17812, CTPS[1-591]-[…]) was obtained from Proteros biostructures GmbH.
3× human CTPS1 protein was prepared in 1× assay buffer to the final working protein concentration required for the reaction. A 2 uL volume per well of 3× human CTPS1 protein was mixed with 2 uL per well of 3× test compound (compound prepared in 1× assay buffer to an appropriate final 3× compound concentration respective to the concentration response curve designed for the compounds under test) for 10 minutes at 25° C. The enzymatic reaction was then initiated by addition of a 2 uL per well volume of a pre-mixed substrate mix (UltraPure ATP from ADP-Glo™ Max kit (0.31 mM), GTP (0.034 mM), UTP (0.48 mM) and L-glutamine (0.186 mM)) and the mixture was incubated for an appropriate amount of time within the determined linear phase of the reaction at 25° C. under sealed plate conditions with constant agitation at 500 revolutions per minute (rpm). ADP-Glo™ Max reagent was added for 60 minutes (6 μL per well) and subsequently ADP-Glo™ Max development reagent was added for 60 minutes (12 uL per well) prior to signal detection in a microplate reader (EnVision® Multilabel Reader, Perkin Elmer). Following each reagent addition over the course of the assay, assay plates were pulse centrifuged for 30 seconds at 500 rpm.
In all cases, the enzyme converts ATP to ADP and the ADP-Glo™ Max reagent subsequently depletes any remaining endogenous ATP in the reaction system. The ADP-Glo™ Max detection reagent converts the ADP that has been enzymatically produced back into ATP and using ATP as a substrate together with luciferin for the enzyme luciferase, light is generated which produces a detectable luminescence. […] The percentage inhibition produced by each concentration of compound was calculated using the equation shown below: […]
Percentage inhibition was then plotted against compound concentration, and the 50% inhibitory concentration (IC50) was determined from the resultant concentration-response curve.

`CC(C)(C(=O)Nc1ccc(-c2cccnc2)cn1)c1ccnc(NS(=O)(=O)C2CC2)n1` [Example P29] and `CC(C)(C(=O)Nc1ccc(-c2cccnc2)cc1F)c1ccnc(NS(=O)(=O)C2CC2)n1` [Example P36] fall in the same range of IC50: 1000 to 10000 nM for the first, 1000 to 10000 nM for the second.

First: CC(C)(C(=O)Nc1ccc(-c2cncnc2)cc1)c1ccnc(NS(=O)(=O)C2CC2)n1 [Example P50]
Second: COc1cncc(-c2ccc(NC(=O)C(C)(C)c3ccnc(NS(=O)(=O)C4CC4)n3)cc2)c1 [Example P56]
The IC50 of the first is higher: 1000 to 10000 nM for the first, 100 to 1000 nM for the second. The second is the more potent here.

`CCOc1cncc(-c2cc(C)c(NC(=O)C(C)(C)c3ccnc(NS(=O)(=O)C4CC4)n3)cc2F)n1` [Example P45] and `CCOc1cncc(-c2cc(F)c(NC(=O)C(C)(C)c3ccnc(NS(=O)(=O)C4CC4)n3)c(F)c2)n1` [Example P41] cannot be ordered by IC50: 100 to 1000 nM for the first, ≤ 100 nM for the second.

`O=C(Cc1cccc(NS(=O)(=O)C2CC2)n1)Nc1ccc(-c2cncc(C(F)(F)F)n2)cc1` [Example P172] and `O=C(Cc1ccnc(NS(=O)(=O)C2CC2)n1)Nc1ccc(-c2cncc(C(F)(F)F)n2)cc1` [Example P8, 2-(2-(Cyclopropanesulfonamido)pyrimidin-4-yl)-N-(4-(6-(trifluoromethyl)pyrazin-2-yl)phenyl)acetamide] cannot be ordered by IC50: 100 to 1000 nM for the first, ≤ 100 nM for the second.

`CCOc1cncc(-c2ccc(NC(=O)C3(c4ccnc(NS(C)(=O)=O)n4)CCNCC3)nc2)n1` [Example P138] and `CCOc1cncc(-c2ccc(NC(=O)C3(c4ccnc(NS(C)(=O)=O)n4)CCN(C(=O)OC(C)(C)C)CC3)nc2)n1` [Example P142] fall in the same range of IC50: 100 to 1000 nM for the first, 100 to 1000 nM for the second.

First: CN(C)c1cncc(-c2ccc(NC(=O)C(C)(C)c3ccnc(NS(=O)(=O)C4CC4)n3)cc2)n1 [Example P133]
Second: COc1cncc(-c2ccc(NC(=O)C(C)(C)c3ccnc(NS(=O)(=O)C4CC4)n3)cc2)n1 [Example P3, 2-(2-(cyclopropanesulfonamido)pyrimidin-4-yl)-N-(4-(6-methoxypyrazin-2-yl)phenyl)-2-methylpropanamide]
The IC50 of the first is higher: 1000 to 10000 nM for the first, ≤ 100 nM for the second.

First: CCOc1cncc(-c2ccc(NC(=O)C(C)(C)c3ccnc(NS(=O)(=O)C(C)(C)C)n3)cc2)n1 [Example P82]
Second: CCOc1cncc(-c2ccc(NC(=O)C(C)(C)c3ccnc(NS(=O)(=O)C4CCC4)n3)cc2)n1 [Example P26]
The IC50 of the first is higher: 1000 to 10000 nM for the first, 100 to 1000 nM for the second.

`CCOc1cncc(-c2cnc(NC(=O)C(CCOC)c3ccnc(NS(=O)(=O)C4CC4)n3)c(F)c2)n1` (centres unmarked) [Example P144] and `CCOc1cncc(-c2ccc(NC(=O)C(c3ccnc(NS(=O)(=O)C4CC4)n3)C(C)C)c(F)c2)n1` (centres unmarked) [Example P153] cannot be ordered by IC50: ≤ 100 nM for the first, ≤ 100 nM for the second.

`CC(C)(C(=O)Nc1ccc(-c2cncc(F)c2)cc1)c1cccc(NS(=O)(=O)C2CC2)n1` [Example P177] and `CC(C)(C(=O)Nc1ccc(-c2cncc(C(F)(F)F)n2)cc1)c1cccc(NS(=O)(=O)C2CC2)n1` [Example P181] fall in the same range of IC50: 1000 to 10000 nM for the first, 1000 to 10000 nM for the second.

`C=C(C)c1cncc(-c2ccc(NC(=O)C(C)(C)c3ccnc(NS(=O)(=O)C4CC4)n3)cc2)n1` [Example P131] and `COc1cncc(-c2ccc(NC(=O)C(C)(C)c3ccnc(NS(=O)(=O)C4CCC4)n3)cc2)n1` [Example P25] fall in the same range of IC50: 100 to 1000 nM for the first, 100 to 1000 nM for the second.

`CCC(C(=O)Nc1ccc(-c2cncc(Cl)c2)cn1)c1ccnc(NS(=O)(=O)C2CC2)n1` (centres unmarked) [Example P148] and `CCC(C(=O)Nc1ccc(-c2cncc(C3CC3)n2)cn1)c1ccnc(NS(=O)(=O)C2CC2)n1` (centres unmarked) [Example P156] cannot be ordered by IC50: ≤ 100 nM for the first, ≤ 100 nM for the second.

First: O=C(Cc1cccc(NS(=O)(=O)C2CC2)n1)Nc1ccc(-c2cncc(Cl)c2)cc1 [Example P167]
Second: O=C(Cc1cccc(NS(=O)(=O)C2CC2)n1)Nc1ccc(-c2cnccn2)cc1 [Example P174]
The IC50 of the first is lower: 100 to 1000 nM for the first, 1000 to 10000 nM for the second. The first is the more potent here.

`CCOc1cncc(-c2ccc(NC(=O)C3(c4ccnc(NS(=O)(=O)C5CC5)n4)CN(C(=O)OC(C)(C)C)C3)nc2)n1` [Example P141] and `CCOc1cncc(-c2ccc(NC(=O)C3(c4ccnc(NS(=O)(=O)C5CC5)n4)CCN(C(=O)OC(C)(C)C)CC3)nc2)n1` [Example P139] fall in the same range of IC50: 100 to 1000 nM for the first, 100 to 1000 nM for the second.

First: O=C(Cc1nc(NS(=O)(=O)C2CC2)ncc1F)Nc1ccc(-c2cccnc2)cc1 [Example P15]
Second: O=C(Cc1ccnc(NS(=O)(=O)C2CC2)n1)Nc1ccc(-c2cncc(C(F)(F)F)c2)cc1 [Example P13]
The IC50 of the first is higher: 1000 to 10000 nM for the first, 100 to 1000 nM for the second. The second is the more potent here.

`CCC(F)(C(=O)Nc1ccc(-c2cncc(C3CC3)n2)cn1)c1ccnc(NS(=O)(=O)C2CC2)n1` (centres unmarked) [Example P150] and `CCC(C(=O)Nc1ccc(-c2cncc(C3CC3)n2)cc1F)c1ccnc(NS(=O)(=O)C2CC2)n1` (centres unmarked) [Example P160] cannot be ordered by IC50: ≤ 100 nM for the first, ≤ 100 nM for the second.

First: CCOc1cccc(-c2ccc(NC(=O)C(C)(C)c3ccnc(NS(=O)(=O)C4CC4)n3)cc2)c1 [Example P63]
Second: CC(C)(C(=O)Nc1ccc(-c2cnccn2)cc1)c1ccnc(NS(=O)(=O)C2CC2)n1 [Example P71]
The IC50 of the first is higher: 10000 to 20000 nM for the first, 1000 to 10000 nM for the second.

`O=C(Cc1ccnc(NS(=O)(=O)C2CC2)n1)Nc1ccc(-c2cncc(OCC(F)(F)F)c2)cc1` [Example P14] and `CCOc1cncc(-c2ccc(NC(=O)C(C)(C)c3ccnc(NS(=O)(=O)C4CC4)n3)nc2)c1` [Example P28] fall in the same range of IC50: 100 to 1000 nM for the first, 100 to 1000 nM for the second.

`CCOc1cncc(-c2ccc(NC(=O)C(C)(C)c3cc(C)nc(NS(=O)(=O)C4CC4)n3)nc2)n1` [Example P123] and `CCOc1cncc(-c2ccc(NC(=O)C(C)(C)c3cc(C)nc(NS(=O)(=O)C4CC4)n3)c(F)c2)n1` [Example P129] fall in the same range of IC50: 100 to 1000 nM for the first, 100 to 1000 nM for the second.

First: Cc1cncc(-c2ccc(NC(=O)C(C)(C)c3ccnc(NS(C)(=O)=O)n3)c(C)c2)n1 [Example P5, 2-Methyl-N-(2-methyl-4-(6-methylpyrazin-2-yl)phenyl)-2-(2-(methylsulfonamido)pyrimidin-4-yl)propanamide]
Second: CC(C)Oc1cncc(-c2ccc(NC(=O)C(C)(C)c3ccnc(NS(C)(=O)=O)n3)c(F)c2)n1 [Example P78]
The IC50 of the first is higher: 1000 to 10000 nM for the first, 100 to 1000 nM for the second. The second is the more potent here.

`CCOc1cncc(-c2ccc(NC(=O)C(C)(C)c3ccnc(NS(=O)(=O)C4CCC4)n3)c(C)c2)n1` [Example P24] and `CCOc1cncc(-c2ccc(NC(=O)C(F)(F)c3ccnc(NS(=O)(=O)C4CC4)n3)c(F)c2)n1` [Example P117] cannot be ordered by IC50: 100 to 1000 nM for the first, ≤ 100 nM for the second.

`CCS(=O)(=O)Nc1nccc(C(C)(C)C(=O)Nc2ccc(-c3cncc(C(F)(F)F)n3)cc2)n1` [Example P73] and `CCOc1cncc(-c2ccc(C(=O)NC(CC)c3cncc(NS(=O)(=O)C4CC4)n3)c(F)c2)n1` (single isomer, unassigned) [Example P225] cannot be ordered by IC50: 100 to 1000 nM for the first, ≤ 100 nM for the second.

Same assay, conditions: Table 24; ADP-Glo Max assay; read-out: CTPS1 (Human CTPS1 Enzyme Inhibition data grouped by potency range, IC50)

`CCOc1cncc(-c2ccc(NCC3(c4ccnc(NS(=O)(=O)C5CC5)n4)CCOCC3)cc2)n1` [Example P256] and `CCOc1cncc(-c2ccc(CNC3(c4ccnc(NS(=O)(=O)C5CC5)n4)CC3)c(F)c2)n1` [Example P255] fall in the same range of IC50: 100 to 1000 nM for the first, 100 to 1000 nM for the second.

`CCOc1cncc(-c2ccc(NC(=O)C3(c4ccnc(NS(=O)(=O)C5CC5)n4)CCC(OC)CC3)nc2)n1` (centres unmarked) [Example P260] and `CCOc1cncc(-c2ccc(NC(=O)C3(c4ccnc(NS(=O)(=O)C5CC5)n4)CC4(C3)OCCO4)nc2)n1` [Example P258] cannot be ordered by IC50: ≤ 100 nM for the first, ≤ 100 nM for the second.

Same assay, conditions: Table 25; compounds where R1 is substituted by CN; read-out: CTPS1 (Human CTPS1 Enzyme Inhibition data grouped by potency range, IC50)

`CCOc1cncc(-c2ccc(NC(=O)C3(c4ccnc(NS(=O)(=O)C5(C#N)CC5)n4)CCOCC3)nc2)n1` [Example P285, 4-(2-((1-cyanocyclopropane)-1-sulfonamido)pyrimidin-4-yl)-N-(5-(6-ethoxypyrazin-2-yl)pyridin-2-yl)tetrahydro-2H-pyran-4-carboxamide] was tested, and the IC50 was ≤ 100 nM.
